Molecules are shown by their SMILES. Values joined by “and” are separate entries in the source; they are usually repeats but may differ in a detail not shown here. Equal entries are not always repeated. Active and inactive are the calls of the source.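 How the source made its calls: active means 40% activation versus positive control reached by fitted dose-response curve at or below highest valid tested dose; inconclusive means poor fit quality, or flat fit with activation between 30% and 70%; inactive means the rest.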

The subject of the assay is 68-5-11 mouse fibroblast XiGFP reporter, % GFP-positive imaging, 3 d. Nature of the assay: inactive X chromosome reactivation in XiGFP fibroblasts, dose response, imaging, 68-5-11 mouse fibroblasts, GFP, cherry-pick (AID 743394).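 Further: sensitizer 5-aza-dC present in the wells at 0.5 mM final.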 Particulars: cells co-treated with 5-aza-dC sensitizer.
As to `O=[N+]([O-])c1ccc(/C=C/C2=NN(c3ccccc3)C(c3ccco3)C2)cc1` (stereo unspecified), the AC40 is 1.81 µM. Regarding `Cc1cc(C)cc(NC(=O)/C=C/c2ccc([N+](=O)[O-])s2)c1`, the AC40 was 1.7 µM.

With `CCCCN(C)C1=CC2=CC(=C(C#N)C#N)CCC2CC1` (stereo unspecified), the AC40 was 2.86 µM. Consider `CN1CCc2c(sc(NC(=O)c3ccc(S(=O)(=O)N4CCc5ccccc54)cc3)c2C(N)=O)C1`, for which the AC40 was 8.93 µM. Turning to `Cc1ccc(C(=O)N/C(=C/c2ccc(-c3ccc([N+](=O)[O-])cc3)o2)C(=O)NCCCN(C)C)cc1`, the AC40 was 4.28 µM. As for `O=[N+]([O-])c1ccc(N/N=C/c2sc(N3CCOCC3)nc2-c2ccccc2)c(S(=O)(=O)Nc2ccc(Cl)cc2)c1`, the AC40 was 1.72 µM. With `Cc1c2c(cc3c1[nH]c1ccccc13)C=NCC2`, the AC40 is 9.27 µM. Take `COc1ccc(NC(=O)CCc2ccccc2)cc1S(=O)(=O)N1CCCCC1`: the AC40 was 17 µM. `COc1ccc2c(n1)Sc1nc3ccccc3nc1N2`: the AC40 is 13.1 µM. As to `COc1ccccc1N1N=C(c2ccc([N+](=O)[O-])cc2)CC1c1ccccc1` (stereo unspecified), the AC40 is 18.4 µM.

Consider `COc1ccc2nc(C)cc(NCc3ccc(F)cc3)c2c1`, for which the AC40 is 4.9 µM. Take `COc1ccc(-[n+]2c(C)cc(/C=C3\Sc4ccccc4N3C)cc2C)cc1`: the AC40 was 0.22 µM.

Take `CCN1CCc2c(sc(NC(=O)c3ccc(S(=O)(=O)N(CC)c4ccccc4)cc3)c2C(N)=O)C1`: the AC40 was > 19.5 µM (inactive). As to `CC(=O)[C@@]1(O)Cc2c(O)c3c(c(O)c2[C@H](O[C@H]2C[C@H](N)[C@H](O)[C@H](C)O2)C1)C(=O)c1ccccc1C3=O`, the AC40 is 1.09 µM. In the case of `COc1cc2c3nnc(-c4ccc(F)cc4)c-3cn(Cc3ccccc3)c2cc1OC`, the AC40 was 1.23 µM.

As to `CC1=NN(c2nc(N)nc(/C(C#N)=C/c3ccc([N+](=O)[O-])o3)n2)C(C)(C)C1`, the AC40 is 2.18 µM. For `CCN(CC)c1ccc2cc(C(=O)c3cccs3)c(=O)oc2c1`, the AC40 is 5.34 µM. For `CN(C)CCN(Cc1ccc(Cl)cc1)c1ccccn1`, the AC40 is > 2.1 µM (inactive). For the compound `CN(C)c1ccc(/C=C(/C#N)C(=O)NCc2ccccc2)o1`, the AC40 is 10.3 µM. Then `CCN1/C(=C\c2ccc3cc(C)ccc3[n+]2CC)Sc2cc(C)c(C)cc21`, with 5.57 µM.

As to `CCOC(=O)Cn1c(=NC(=O)c2ccc([N+](=O)[O-])s2)sc2ccccc21`, the AC40 was 7.3 µM. For the compound `O=S(=O)(Nc1cc(Sc2cccc3cccnc23)c(O)c2ccccc12)c1ccccc1`, the AC40 was > 19.5 µM (inactive).

On to `Cc1cccc2cc3c(N)c(C(=O)N4CCCc5ccccc54)sc3nc12`, for which the AC40 is 9.89 µM. Then `Nc1c(C(=O)c2cccs2)sc2nsc(SCCN3CCCCC3)c12`, with 2.57 µM; and `CCOCCCNC(=O)/C(C#N)=C/c1ccc([N+](=O)[O-])o1`, with > 19.5 µM (inactive). Take `O=[N+]([O-])c1ccc(N2N=C(c3ccccc3)CC2c2ccccc2O)cc1` (stereo unspecified): the AC40 is 12.4 µM. Turning to `C[n+]1c2cc(N)ccc2cc2ccc(N)cc21`, the AC40 was 0.297 µM and 0.116 µM. As for `Oc1ccc(/C=N/Nc2ccnc3cc(Cl)ccc23)c(O)c1`, the AC40 is > 19.5 µM (inactive). Regarding `CN1/C(=C/C=C(C#N)C#N)C(C)(C)c2ccccc21`, the AC40 is 11.3 µM. For the compound `O=C1c2cccc3c([N+](=O)[O-])ccc(c23)C(=O)N1Cc1cccnc1`, the AC40 is 10.1 µM.

In the case of `Cc1ccc2[nH]c(C)c(/C=C/c3cc[n+](C)cc3)c2c1`, the AC40 was 8.58 µM.

On to `N#Cc1c(-c2ccccc2F)cc(C2CC2)nc1SCC(=O)c1cccs1`, for which the AC40 was 7.48 µM. Consider `CCc1cccc2cc3c(N)c(C(=O)Nc4ccc(S(=O)(=O)N5CCCC5)cc4)sc3nc12`, for which the AC40 is 4.01 µM. Take `COc1ccc(C(=O)c2sc3nc(C)cc(-c4cccs4)c3c2N)cc1`: the AC40 was 7.57 µM.

For the compound `CC(C)(C)NC(=S)N/N=C\c1ccc(-c2ccc([N+](=O)[O-])cc2)o1`, the AC40 is 5.94 µM.

`CCN1/C(=C/c2ccc3cc(C)cc(C)c3[n+]2CC)Sc2cc(C)ccc21`: the AC40 is 0.507 µM. For `CCN1CCc2c(sc(NC(=O)Nc3ccc(Cl)c(Cl)c3)c2C(N)=O)C1`, the AC40 is 0.196 µM. For `N#C/C(=C/c1ccc(-c2ccc(S(N)(=O)=O)cc2)o1)c1nc2ccccc2s1`, the AC40 was 1.17 µM. As for `c1ccc(-c2cnn3c(-c4ccccc4)c(-c4ccccc4)nc3n2)cc1`, the AC40 is 1.8 µM.

Turning to `Nc1c(C(=O)c2ccccc2)sc2nsc(SCCN3CCCC3)c12`, the AC40 was 8.3 µM. On to `COc1cc(/C=C/C(=O)c2ccc([N+](=O)[O-])o2)ccc1O`, for which the AC40 is 10.3 µM.

As to `Nc1c(Br)cc2c3c(cccc13)-c1ccccc1-2`, the AC40 is 12.6 µM. The figure for `COc1ccc(NC(=O)C(C)N2C(=O)c3ccccc3C2=O)c(OC)c1` (stereo unspecified) is 9.06 µM. Then `C/C(=N\Nc1ncnc2sc(C)c(C)c12)c1ccccn1`, with 0.784 µM; and `C#Cc1cc(N2CCN(C(=O)c3ccoc3)CC2)n2nc(-c3cccc(Cl)c3)cc2n1`, with 8.99 µM; and `Cc1ccc(-c2cn3nc(-c4ccccc4)c(-c4ccccc4)nc3n2)cc1`, with 7.27 µM. As for `O=c1oc2cc(O)ccc2cc1-c1nc2c(s1)CCc1ccccc1-2`, the AC40 was 2.79 µM.

Regarding `CCN1/C(=C/c2ccc3cc(C)ccc3[n+]2CC)Sc2cc(C)c(C)cc21`, the AC40 was 1.29 µM. `Nc1ccc2c3c(cccc13)-c1ccccc1-2`: the AC40 is 1.04 µM. Then `CCOC(=O)/C(=C/C=C1\Sc2cc(C)c(C)cc2N1CC)C(C)=O`, with 16.9 µM; and `CC(C)CCN1C(=O)c2cccc3c(N)ccc(c23)C1=O`, with 7.46 µM; and `COC(=O)C1=C(C)NC(C)=C(C(=O)OC)C1C(=O)OCC(=O)c1ccc(F)cc1`, with 15.3 µM. With `COc1ccc(C(=O)c2sc3nc(C)cc(-c4cccs4)c3c2N)cc1OC`, the AC40 is > 19.5 µM (inactive). `CCN(CC)c1ccc2cc(-c3nc(-c4ccc(OC)cc4)cs3)c(=O)oc2c1`: the AC40 is 0.057 µM. Consider `N#C/C(=C\c1ccc([N+](=O)[O-])o1)c1nc2ccccc2[nH]1`, for which the AC40 is 1.26 µM. For the compound `COC1C(CO)OC(n2c3c(Cl)cccc3c3c4c(c5c6cccc(Cl)c6[nH]c5c32)C(=O)NC4=O)C(O)C1O` (stereo unspecified), the AC40 was 13.8 µM.

For the compound `Cc1cc(/C=C2\SC(=S)N(Cc3ccco3)C2=O)c(C)n1-c1ccccc1`, the AC40 is > 19.5 µM (inactive). As to `COc1ccccc1-[n+]1c(C)cc(/C=C2\Sc3ccccc3N2C)cc1C`, the AC40 was 0.249 µM. Regarding `CCOC(=O)C1=C(O)/C(=C/c2cc(OC)c(O)c(OC)c2)SC1=Nc1ccc(OC)cc1`, the AC40 is 18.3 µM. For `CC(=O)c1ccc(C(=O)Nc2sc3c(c2C(N)=O)CCN(Cc2ccccc2)C3)cc1`, the AC40 is > 19.5 µM (inactive). As to `O=C(NC1CCCC1)c1cccc2c1C(=O)c1ccc(/C=C/c3ccccc3)cc1S2(=O)=O`, the AC40 is 5.54 µM. The figure for `COc1cc2c3nnc(-c4ccc(F)cc4)c-3cn(Cc3cccc(C)c3)c2cc1OC` is 3.74 µM. Regarding `O=[N+]([O-])c1ccc(/C=N/NC(=S)Nc2ccc(Cl)cc2Cl)s1`, the AC40 was > 19.5 µM (inactive). The figure for `Cn1cc(/C=C/c2cc[n+](C)cc2)c2cc(Cl)ccc21` is > 19.5 µM (inactive). The figure for `NC(=O)c1c(NC(=O)c2ccccc2)sc2c1CCN(Cc1ccccc1)C2` is 15.8 µM. Then `CCN1/C(=C/c2ccc3cc(C)ccc3[n+]2CC)Sc2cc(C)ccc21`, with 2.16 µM.
